Type in all cases: cell-based, human
Assay [1] deals with A549 cancer cell line. Nature of the assay: MTT assay for anticancer activity, A549 cells. Particulars: read-out: IC50 against A549.
Procedure: (§1) A549, HeLa and HCT15 human cancer cells were seeded and maintained in triplicate at 4×10^3 cells/well in 100 μL DMEM (Dulbecco's Modified Eagle's Medium) containing 10% FBS (Fetal Bovine Serum) in 96-wells tissue culture plate and incubated for 72 h at 37° C. 5% CO2 in air and 90% relative humidity in CO2 incubator.
(§2) The resultant cultures were incubated for 24 h. The medium of wells was discarded. 100 μL DMEM containing MTT (3-(4,5-Dimethylthiazol-2-Yl)-2,5-Diphenyltetrazolium Bromide) (5 mg/mL) was added to the wells and incubated in CO2 incubator at 37° C. in dark for 4 h. After incubation, a purple colored formazan (artificial chromogenic dye, product of the reduction of water insoluble tetrazolium salts e.g., MMT by dehydrogenases and reductases) in the cells is produced and appeared as dark crystals in the bottom of the wells. The medium of culture was discarded from each well carefully to avoid disruption of monolayer. 100 μL of Dimethylsulphoxide (DMSO) was added in each well. The solution was thoroughly mixed in the wells to dissolve the formazan crystals which ultimately result into a purple solution. The absorbance of the 96-wells plate was taken at 570 nm with Lab systems Multiskan EX-Enzyme-linked immunosorbent assay (EX-ELISA) reader against a reagent blank. All data presented are mean±standard error of the mean (SEM).
In assay [2] the test system is HeLa cancer cell line. Nature of the assay: MTT assay for anticancer activity, HeLa cells. Particulars: read-out: IC50 against HeLa. (In general: Tetrazolium assays rely on reduction of a dye to a coloured formazan, in cell work by metabolically active cells.)
Procedure: as §1, §2
For assay [3], the system named is HCT15 cancer cell line. Nature of the assay: MTT assay for anticancer activity, HCT15 cells. Particulars: read-out: IC50 against HCT15.
Procedure: as §1, §2
[4] abbreviates: A549 cells, MTT, 24 h incubation.
[5] abbreviates: HeLa cells, MTT, 24 h incubation.
The mark [6] stands for this setting: HCT15 cells, MTT, 24 h incubation.

Read-outs that look alike come from different tables or passages of the source.

The term IC50 denotes the concentration needed to halve the response being measured. With “tri-tert-butyl-phosphine gold(I) dibenzyldithiocarbamate [Complex (A1)]”, the IC50 turned out to be 96.9 µM in assay [1], 25.6 µM in assay [2] and 93.2 µM in assay [3].

Take `[Cl][Au].[Cl][Au].c1ccc(P(CP(c2ccccc2)c2ccccc2)c2ccccc2)cc1` [[(DPPM)(AuCl)2](A0), [μ-Bis(diphenylphosphino)methane]dichlorodigold(I)]: the IC50 in assay [1] (setting [4]) amounted to 137 µM; in assay [2] (setting [5]), 108 µM; in assay [3] (setting [6]), 148 µM.

With `N.N.[Cl][Pt][Cl]` [cisplatin], the values for the IC50 in assay [1] (setting [4]), in assay [2] (setting [5]) and in assay [3] (setting [6]) were 41.6 µM, 19.4 µM and 29.5 µM, respectively.
